{"source": "patent US6706663B2", "about": "“Herbicidal 3-heterocyclic substituted benzisothiazole and benzisoxazole compounds” (Wyeth, priority 2000, dated 2004)", "key": {"[1]": {"tested_on": "AMBEL (Ambrosia artemisifolia)", "test": "Preemergence herbicidal evaluation", "assay_type": "in vivo, L.", "conditions": "preemergence, rated 4-5 weeks after treatment", "method_in_brief": "(§1)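 Each species was sown separately in potting soil over roughly one inch of soil, and the surface sprayed with compound dissolved in aqueous acetone. Assessment used a 0–9 visual scale against a control after four to five weeks.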"}, "[2]": {"tested_on": "CASOB (Cassia obtusifolia)", "test": "Preemergence herbicidal evaluation", "assay_type": "in vivo, L.", "conditions": "preemergence, rated 4-5 weeks after treatment", "method_in_brief": "as §1"}, "[3]": {"tested_on": "CHEAL (Chenopodium album)", "test": "Preemergence herbicidal evaluation", "assay_type": "in vivo, L.", "conditions": "preemergence, rated 4-5 weeks after treatment", "method_in_brief": "as §1"}, "GALAP (Galium aparine) [4]": {"tested_on": "GALAP (Galium aparine)", "test": "Postemergence herbicidal evaluation", "assay_type": "in vivo", "method_in_brief": "(§2)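 Seedlings grown for about two weeks were sprayed postemergence and then kept under standard greenhouse care. Injury was rated visually 4–5 weeks after treatment on a 0–9 scale against untreated controls, and ratings from repeat tests were averaged.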"}, "[5]": {"tested_on": "ABUTH (Abutilon theophrasti)", "test": "Postemergence herbicidal evaluation", "assay_type": "in vivo, Medic.", "method_in_brief": "as §2"}, "[6]": {"tested_on": "GLXMAW (Soybean, Williams)", "test": "Postemergence herbicidal evaluation", "assay_type": "in vivo, Glycine max, (L.) Merr. cv Williams", "method_in_brief": "as §2"}, "[7]": {"tested_on": "ECHCG (Echinochloa crus-galli)", "test": "Postemergence herbicidal evaluation", "assay_type": "in vivo, (L.) Beau", "method_in_brief": "as §2"}, "[8]": {"tested_on": "SAGPY (Sagittaria pygmaea)", "test": "Flooded paddy, preemergence weed control", "assay_type": "in vivo, L.", "conditions": "rated 3-4 weeks after treatment, 0-9 rating scale", "method_in_brief": "(§3)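 Seeds or propagules were planted in the top 0.5 cm of silt loam soil and kept flooded 1.5–3 cm above the surface throughout, then held in the greenhouse. Injury was rated visually on a 0–9 scale against untreated controls, covering stand, vigor, malformation, size and chlorosis.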"}, "[9]": {"tested_on": "TRZAWR (Wheat, Winter, cv Riband)", "test": "Preemergence herbicidal evaluation", "assay_type": "in vivo, Triticum aestivum", "conditions": "preemergence, rated 4-5 weeks after treatment", "method_in_brief": "as §1"}, "[10]": {"tested_on": "CYPSE (Cyperus serotinus)", "test": "Flooded paddy, preemergence weed control", "assay_type": "in vivo, Rottb.", "conditions": "rate 0.1250 kg/ha, rated 3-4 weeks after treatment, 0-9 rating scale", "method_in_brief": "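Herbicidal effect was scored visually on a 0–9 scale against an untreated control 3–4 weeks after treatment. Compounds were applied preemergence as 50/50 v/v aqueous/acetone mixtures into flood water (1.5–3 cm deep over silt loam), at roughly 0.0080 to 0.1250 kg/ha active ingredient.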"}, "[11]": {"tested_on": "ECHORC (Echinochloa oryzoides)", "test": "Flooded paddy, preemergence weed control", "assay_type": "in vivo, Echinochloa oryzoides (Ard.) Fritsch.", "conditions": "rated 3-4 weeks after treatment, 0-9 rating scale", "method_in_brief": "as §3"}, "ZEAMX (Corn, Field) [12]": {"tested_on": "ZEAMX (Corn, Field)", "test": "Postemergence herbicidal evaluation", "assay_type": "in vivo, Zea mays, L.", "method_in_brief": "as §2"}, "[13]": {"tested_on": "IPOHE (Ipomoea hederacea)", "test": "Preemergence herbicidal evaluation", "assay_type": "in vivo, (L.) Jacq.", "conditions": "preemergence, rated 4-5 weeks after treatment"}, "[14]": {"tested_on": "IPOHE (Ipomoea hederacea)", "test": "Postemergence herbicidal evaluation", "assay_type": "in vivo, (L.) Jacq.", "method_in_brief": "as §2"}, "[15]": {"tested_on": "GLXMAW (Soybean, Williams)", "test": "Preemergence herbicidal evaluation", "assay_type": "in vivo, Glycine max, (L.) Merr. cv Williams", "conditions": "preemergence, rated 4-5 weeks after treatment"}, "CYPIR (Cyperus iria)": {"tested_on": "CYPIR (Cyperus iria)", "test": "Flooded paddy, preemergence weed control", "assay_type": "in vivo", "conditions": "rated 3-4 weeks after treatment, 0-9 rating scale", "method_in_brief": "as §3"}, "ORYSAT (Rice, Tebonnet)": {"tested_on": "ORYSAT (Rice, Tebonnet)", "test": "Preemergence herbicidal evaluation", "assay_type": "in vivo, Oryza sativa, (L.) Tebonnet", "conditions": "preemergence, rated 4-5 weeks after treatment"}, "[16]": {"tested_on": "AMBEL (Ambrosia artemisifolia)", "test": "Postemergence herbicidal evaluation", "assay_type": "in vivo, L.", "method_in_brief": "as §2"}, "[17]": {"tested_on": "CASOB (Cassia obtusifolia)", "test": "Postemergence herbicidal evaluation", "assay_type": "in vivo, L.", "method_in_brief": "as §2"}, "[18]": {"tested_on": "CHEAL (Chenopodium album)", "test": "Postemergence herbicidal evaluation", "assay_type": "in vivo, L.", "method_in_brief": "as §2"}, "GALAP (Galium aparine) [19]": {"tested_on": "GALAP (Galium aparine)", "test": "Preemergence herbicidal evaluation", "assay_type": "in vivo", "conditions": "preemergence, rated 4-5 weeks after treatment", "method_in_brief": "as §1"}, "ZEAMX (Corn, Field) [20]": {"tested_on": "ZEAMX (Corn, Field)", "test": "Preemergence herbicidal evaluation", "assay_type": "in vivo, Zea mays, L.", "conditions": "preemergence, rated 4-5 weeks after treatment"}}}
{"smiles": "CCc1cc(-c2nsc3ccc(-n4c(=O)cc(C(F)(F)F)n(C)c4=O)cc23)c(CC)s1", "note": "[Compound 8, 3-[3-(2,5-diethyl-3-thienyl)-1,2-benzisothiazol-5-yl]-1-methyl-6-(trifluoromethyl)uracil]", "values": [{"measurement": "AMBEL preemergence herbicidal rating", "setting": "[1]; Rate 0.0620 kg/ha", "result": 0.0}, {"measurement": "AMBEL preemergence herbicidal rating", "setting": "[1]; Rate 0.1250 kg/ha", "result": 2.0}, {"measurement": "AMBEL preemergence herbicidal rating", "setting": "[1]; Rate 0.2500 kg/ha", "result": 9.0}, {"measurement": "CASOB preemergence herbicidal rating", "setting": "[2]; Rate 0.0620 kg/ha", "result": 0.0}, {"measurement": "CASOB preemergence herbicidal rating", "setting": "[2]; Rate 0.1250 kg/ha", "result": 0.0}, {"measurement": "CASOB preemergence herbicidal rating", "setting": "[2]; Rate 0.2500 kg/ha", "result": 0.0}, {"measurement": "CHEAL preemergence herbicidal rating", "setting": "[3]; Rate 0.0620 kg/ha", "result": 9.0}, {"measurement": "CHEAL preemergence herbicidal rating", "setting": "[3]; Rate 0.1250 kg/ha", "result": 9.0}, {"measurement": "CHEAL preemergence herbicidal rating", "setting": "[3]; Rate 0.2500 kg/ha", "result": 9.0}, {"measurement": "Postemergence herbicidal rating, GALAP", "setting": "GALAP (Galium aparine) [4]; rate 0.0320 kg/ha", "result": 3.0}, {"measurement": "Postemergence herbicidal rating, GALAP", "setting": "GALAP (Galium aparine) [4]; rate 0.0620 kg/ha", "result": 6.0}, {"measurement": "Postemergence herbicidal rating, ABUTH", "setting": "[5]; rate 0.0320 kg/ha", "result": 9.0}, {"measurement": "Postemergence herbicidal rating, ABUTH", "setting": "[5]; rate 0.0620 kg/ha", "result": 9.0}, {"measurement": "Postemergence herbicidal rating, GLXMAW", "setting": "[6]; rate 0.0320 kg/ha", "result": 5.0}, {"measurement": "Postemergence herbicidal rating, GLXMAW", "setting": "[6]; rate 0.0620 kg/ha", "result": 5.5}, {"measurement": "Postemergence herbicidal rating, ECHCG", "setting": "[7]; rate 0.0320 kg/ha", "result": 2.0}, {"measurement": "Postemergence herbicidal rating, ECHCG", "setting": "[7]; rate 0.0620 kg/ha", "result": 2.0}, {"measurement": "herbicidal rating, SAGPY", "setting": "[8]; rate 0.0080 kg/ha", "result": 0.0}, {"measurement": "herbicidal rating, SAGPY", "setting": "[8]; rate 0.0320 kg/ha", "result": 0.0}, {"measurement": "herbicidal rating, SAGPY", "setting": "[8]; rate 0.1250 kg/ha", "result": 0.0}, {"measurement": "TRZAWR preemergence herbicidal rating", "setting": "[9]; Rate 0.0620 kg/ha", "result": 0.0}, {"measurement": "TRZAWR preemergence herbicidal rating", "setting": "[9]; Rate 0.1250 kg/ha", "result": 0.0}, {"measurement": "TRZAWR preemergence herbicidal rating", "setting": "[9]; Rate 0.2500 kg/ha", "result": 0.0}, {"measurement": "herbicidal rating, CYPSE", "setting": "[10]", "result": 4.5}, {"measurement": "herbicidal rating, ECHORC", "setting": "[11]; rate 0.0080 kg/ha", "result": 2.0}, {"measurement": "herbicidal rating, ECHORC", "setting": "[11]; rate 0.0320 kg/ha", "result": 9.0}, {"measurement": "herbicidal rating, ECHORC", "setting": "[11]; rate 0.1250 kg/ha", "result": 9.0}, {"measurement": "Postemergence herbicidal rating, ZEAMX", "setting": "ZEAMX (Corn, Field) [12]; rate 0.0320 kg/ha", "result": 5.0}, {"measurement": "Postemergence herbicidal rating, ZEAMX", "setting": "ZEAMX (Corn, Field) [12]; rate 0.0620 kg/ha", "result": 5.0}, {"measurement": "IPOHE preemergence herbicidal rating", "setting": "[13]; Rate 0.0620 kg/ha", "result": 0.0}, {"measurement": "IPOHE preemergence herbicidal rating", "setting": "[13]; Rate 0.1250 kg/ha", "result": 0.0}, {"measurement": "IPOHE preemergence herbicidal rating", "setting": "[13]; Rate 0.2500 kg/ha", "result": 1.0}, {"measurement": "Postemergence herbicidal rating, IPOHE", "setting": "[14]; rate 0.0320 kg/ha", "result": 9.0}, {"measurement": "Postemergence herbicidal rating, IPOHE", "setting": "[14]; rate 0.0620 kg/ha", "result": 7.0}, {"measurement": "GLXMAW preemergence herbicidal rating", "setting": "[15]; Rate 0.0620 kg/ha", "result": 0.0}, {"measurement": "GLXMAW preemergence herbicidal rating", "setting": "[15]; Rate 0.1250 kg/ha", "result": 0.0}, {"measurement": "GLXMAW preemergence herbicidal rating", "setting": "[15]; Rate 0.2500 kg/ha", "result": 0.0}, {"measurement": "herbicidal rating, CYPIR", "setting": "CYPIR (Cyperus iria); rate 0.0080 kg/ha", "result": 8.5}, {"measurement": "herbicidal rating, CYPIR", "setting": "CYPIR (Cyperus iria); rate 0.0320 kg/ha", "result": 9.0}, {"measurement": "herbicidal rating, CYPIR", "setting": "CYPIR (Cyperus iria); rate 0.1250 kg/ha", "result": 9.0}, {"measurement": "ORYSAT preemergence herbicidal rating", "setting": "ORYSAT (Rice, Tebonnet); Rate 0.0620 kg/ha", "result": 0.0}, {"measurement": "ORYSAT preemergence herbicidal rating", "setting": "ORYSAT (Rice, Tebonnet); Rate 0.1250 kg/ha", "result": 0.0}, {"measurement": "ORYSAT preemergence herbicidal rating", "setting": "ORYSAT (Rice, Tebonnet); Rate 0.2500 kg/ha", "result": 0.0}, {"measurement": "Postemergence herbicidal rating, AMBEL", "setting": "[16]; rate 0.0320 kg/ha", "result": 3.0}, {"measurement": "Postemergence herbicidal rating, AMBEL", "setting": "[16]; rate 0.0620 kg/ha", "result": 6.0}, {"measurement": "Postemergence herbicidal rating, CASOB", "setting": "[17]; rate 0.0320 kg/ha", "result": 1.0}, {"measurement": "Postemergence herbicidal rating, CASOB", "setting": "[17]; rate 0.0620 kg/ha", "result": 1.0}, {"measurement": "Postemergence herbicidal rating, CHEAL", "setting": "[18]; rate 0.0320 kg/ha", "result": 4.0}, {"measurement": "Postemergence herbicidal rating, CHEAL", "setting": "[18]; rate 0.0620 kg/ha", "result": 7.0}, {"measurement": "GALAP preemergence herbicidal rating", "setting": "GALAP (Galium aparine) [19]; Rate 0.0620 kg/ha", "result": 0.0}, {"measurement": "GALAP preemergence herbicidal rating", "setting": "GALAP (Galium aparine) [19]; Rate 0.1250 kg/ha", "result": 0.0}, {"measurement": "GALAP preemergence herbicidal rating", "setting": "GALAP (Galium aparine) [19]; Rate 0.2500 kg/ha", "result": 9.0}, {"measurement": "ZEAMX preemergence herbicidal rating", "setting": "ZEAMX (Corn, Field) [20]; Rate 0.0620 kg/ha", "result": 0.0}, {"measurement": "ZEAMX preemergence herbicidal rating", "setting": "ZEAMX (Corn, Field) [20]; Rate 0.1250 kg/ha", "result": 0.0}, {"measurement": "ZEAMX preemergence herbicidal rating", "setting": "ZEAMX (Corn, Field) [20]; Rate 0.2500 kg/ha", "result": 3.0}]}
